The results in this text go back to patent publication US11046691B1 (IDEAYA BIOSCIENCES, INC., priority 2018, dated 2021).

In the assay the target is hMAT2A (Homo sapiens (Human), UniProt P31153). The assay can be described thus: Phosphate Sensor Fluorescence Assay (MAT2A enzyme inhibition). The class given is biochemical. To be noted: L-methionine 500 uM, ATP 500 uM, class symbols. The method in brief: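 Recombinant MAT2A preincubated 15 min at room temperature with compound, then reacted 1 h at room temperature with 500 uM L-methionine and 500 uM ATP in Tris pH 7.5 buffer containing PNP/7-MEG.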
Sequence of hMAT2A (P31153 whole entry): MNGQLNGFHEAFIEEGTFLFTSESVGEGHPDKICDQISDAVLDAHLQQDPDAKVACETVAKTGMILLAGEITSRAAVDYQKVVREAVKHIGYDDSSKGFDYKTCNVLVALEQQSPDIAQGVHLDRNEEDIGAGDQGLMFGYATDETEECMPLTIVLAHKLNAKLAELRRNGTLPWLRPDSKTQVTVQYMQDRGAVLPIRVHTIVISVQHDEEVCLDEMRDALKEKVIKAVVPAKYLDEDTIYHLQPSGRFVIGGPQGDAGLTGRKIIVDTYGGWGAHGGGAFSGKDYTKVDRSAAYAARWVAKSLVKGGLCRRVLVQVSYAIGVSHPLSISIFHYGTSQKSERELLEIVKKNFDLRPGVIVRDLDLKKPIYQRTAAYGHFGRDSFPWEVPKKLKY
Molecule `N#Cc1cccc(-n2c(=O)nc(N3CC[C@H](O)C3)c3ccc(C(F)(F)F)nc32)c1` [Example 182, (S)-3-(4-(3-hydroxypyrrolidin-1-yl)-2-oxo-7-(trifluoromethyl)pyrido[2,3-d]pyrimidin-1(2H)-yl)benzonitrile] had an IC50 below 200 nM.

On to `O=c1[nH]c(=O)n(-c2cccc3[nH]ncc23)c2cc(Cl)ccc12` [Example 254, 1-(1H-indazol-4-yl)-7-chloro-1,3-dihydroquinazoline-2,4-dione], for which the IC50 was below 200 nM.

Molecule `O=c1nc(N2CC3CC3C2)c2ccc(Cl)cc2n1-c1ccccc1` (centres unmarked) [Example 222, 4-(3-azabicyclo[3.1.0]hex-3-yl)-7-chloro-1-phenylhydroquinazolin-2-one] came in with an IC50 below 200 nM.

`COc1nc(=O)n(-c2ccccc2Cl)c2cc(C3CC3)ccc12` [Example 423, 1-(2-chlorophenyl)-7-cyclopropyl-4-methoxyhydroquinazolin-2-one] returned an IC50 below 200 nM.

In turn, `CNc1nc(=O)n(-c2ncccc2C)c2cc(Cl)ccc12` [Example 371] had an IC50 below 200 nM.

`CC1(C)CCN(c2nc(=O)n(-c3ccccc3)c3cc(Cl)ccc23)C1` [Example 238, 4-(3,3-dimethylpyrrolidin-1-yl)-7-chloro-1-phenylhydroquinazolin-2-one] displayed an IC50 below 200 nM.

The molecule `O=c1nc(N2CCC2)c2ccc(N3CCC3)cc2n1-c1ccccc1` [Example 94, 4,7-di(azetidin-1-yl)-1-phenylhydro-quinazolin-2-one] had an IC50 of 500 to 1000 nM.

Regarding `CNc1nc(=O)n(-c2ccccc2)c2cc(Cl)cc(OCCO)c12` [Example 185, 7-chloro-5-(2-hydroxyethoxy)-4-(methylamino)-1-phenylhydro-quinazolin-2-one], the IC50 was below 200 nM.

The molecule `Cc1ccccc1-n1c(=O)nc(N)c2ccc(C(F)(F)F)cc21` [Example 125, 4-amino-1-(2-methylphenyl)-7-(trifluoromethyl)hydroquinazolin-2-one] had an IC50 below 200 nM.

Molecule `Cc1ccccc1-n1c(=O)nc(N2CC[C@@H](O)C2)c2ccc(C(F)(F)F)nc21` [Example 183, (R)-4-(3-hydroxypyrrolidin-1-yl)-1-(o-tolyl)-7-(trifluoromethyl)pyrido[2,3-d]-pyrimidin-2(1H)-one] displayed an IC50 below 200 nM.

Molecule `Cn1ccc(CNc2nc(=O)n(-c3ccccc3Cl)c3nc(C(F)(F)F)ccc23)n1` [Example 257, 1-(2-chlorophenyl)-4-{[(1-methyl-pyrazol-3-yl)methyl]amino}-7-(trifluoro-methyl)-pyrido[2,3-d]pyrimidin-2(1H)-one] had an IC50 below 200 nM.

`N#Cc1cc2c(NCC3CCO3)nc(=O)n(-c3ccccc3Cl)c2cc1C1CC1` (centres unmarked) [Example 408, 1-(2-chlorophenyl)-7-cyclopropyl-4-((oxetan-2-ylmethyl)amino)-2-oxo-1,2-dihydroquinazoline-6-carbonitrile] returned a 50% inhibitory concentration (IC50) of 500 to 1000 nM.

Take `Nc1nc(=O)n(-c2ccccc2)c2cc(C(F)(F)F)ccc12` [Example 146, 4-amino-1-phenyl-7-(trifluoromethyl)-hydroquinazolin-2-one]: the IC50 was below 200 nM.

Take `NC(=O)[C@@H]1CCCN1c1nc(=O)n(-c2ccccc2)c2cc(Cl)ccc12` [Example 240, (2S)-1-(7-chloro-2-oxo-1-phenylhydro-quinazolin-4-yl)pyrrolidine-2-carboxamide]: the IC50 lay in the range of 1000 to 10000 nM.

In the case of `CNc1nc(=O)n(-c2ccc3[nH]cnc3c2)c2cc(Cl)ccc12` [Example 307, 1-benzimidazol-5-yl-7-chloro-4-(methyl-amino)hydroquinazolin-2-one], the half-inhibitory concentration (IC50) is below 200 nM.

As for `O=c1nc(N2CC[C@@H](O)C2)c2ccc(C(F)(F)F)cc2n1-c1ccccc1Cl` [Example 395, 4-((3R)-3-hydroxypyrrolidin-1-yl)-1-(2-chlorophenyl)-7-(trifluoromethyl)hydro-quinazolin-2-one], the 50% inhibitory concentration (IC50) was below 200 nM.

`[2H]C([2H])([2H])Nc1nc(=O)n(-c2ccccc2)c2cc(C(F)(F)F)ccc12` [Example 369, 4-((methyl-d3)amino)-1-phenyl-7-(trifluoromethyl)quinazolin-2(1H)-one] yielded an IC50 below 200 nM.
